Results published in ChEMBL document CHEMBL2380200, “Enantioselective inhibition of microbial lipolytic enzymes by nonracemic monocyclic enolphosphonate analogues of cyclophostin” (J Med Chem, 2013).

Tests used:
[1] = target: T1, Cutinase 1 (Fusarium vanettenii) (UniProt P00590); test: Inhibition of Fusarium solani pisi cutinase preincubated with enzyme measured after 30 mins by pH-stat technique
T1 sequence (whole entry): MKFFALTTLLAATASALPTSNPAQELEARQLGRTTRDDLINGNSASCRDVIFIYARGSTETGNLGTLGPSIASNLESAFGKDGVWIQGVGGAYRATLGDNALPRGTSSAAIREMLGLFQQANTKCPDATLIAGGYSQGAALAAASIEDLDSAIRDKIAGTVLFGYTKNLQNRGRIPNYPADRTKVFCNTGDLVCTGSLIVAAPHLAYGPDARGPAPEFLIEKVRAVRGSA

[2] = test system: Mycobacterium tuberculosis; test: Inhibition of Mycobacterium tuberculosis triacylglycerol lipase LipY at 20 molar excess compound concentration preincubated with enzyme measured after 30 mins by pH-stat technique relative to control
[3] = target: T1, Cutinase 1 (Fusarium vanettenii); test: Inhibition of Fusarium solani pisi cutinase at 20 molar excess compound concentration preincubated with enzyme measured after 30 mins by pH-stat technique relative to control
[4] = test system: Mycobacterium tuberculosis; test: Inhibition of Mycobacterium tuberculosis triacylglycerol lipase LipY preincubated with enzyme measured after 30 mins by pH-stat technique
[5] = test system: Mycobacterium tuberculosis; test: Inhibition of Mycobacterium tuberculosis monoacylglycerol lipase Rv0183 preincubated with enzyme measured after 30 mins by pH-stat technique
[6] = test system: Mycobacterium tuberculosis; test: Inhibition of Mycobacterium tuberculosis monoacylglycerol lipase Rv0183 at 20 molar excess compound concentration preincubated with enzyme measured after 30 mins by pH-stat technique relative to control

Structure (SMILES) | XI50 [1] | inhibition [2] | inhibition [3] | XI50 [4] | XI50 [5] | inhibition [6]
CCCCCCCCCC[C@@H]1CC[P@@](=O)(OC)OC(C)=C1C(=O)OC | 3.38 molar excess | 82.8% | 91.8% | 1.64 molar excess | 7.61 molar excess | 87.7%
CCCCCCCCCC[C@H]1CC[P@](=O)(OC)OC(C)=C1C(=O)OC | 2.52 molar excess | 42.1% | 93.2% | 20 molar excess | 1.16 molar excess | 96.6%
CCCCCCCCCC[C@@H]1CC[P@](=O)(OC)OC(C)=C1C(=O)OC | 4.07 molar excess | 49.6% | 86.5% | 15.4 molar excess | 1.24 molar excess | 93.1%
CCCCCCCCCC[C@H]1CC[P@@](=O)(OC)OC(C)=C1C(=O)OC | 97.3 molar excess | 39.8% | 22.5% | 25.9 molar excess | 11.3 molar excess | 78.7%
